Structures are written as SMILES.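 Growth conditions: 96-well plates. Treatment: test compound, 48 hours, 5 concentrations. Analysis: linear interpolation between bracketing concentrations; unreached endpoints set to highest concentration. GI50 = concentration required for 50% inhibition of growth. Definition used: TGI = concentration required for complete inhibition of growth.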 Where a SMILES comes first, the peptide text is derived from it. The star is where a group is joined. Palmitoyl = CCCCCCCCCCCCCCCC(=O)*

Drawing on PubChem BioAssay (NCI), this text covers TGI and GI50 for 20 compounds.

Some test systems named below: SF-295 CNS; HCT-116 colon; SN12C renal; NCI-H226 lung; 786-0 renal; T-47D breast; COLO 205 colon; UACC-257 melanoma; MCF7 breast; SK-MEL-2 melanoma.
Assay in all cases: NCI tumour cell line growth inhibition, 48 h

On to `Cn1ncc2c(NCc3ccccc3)ncnc21`, for which the TGI with SF-295 CNS, in the assay with HCT-116 colon, with SN12C renal, in the assay on NCI-H226 lung, in the assay with 786-0 renal and in the assay with T-47D breast was greater than 100 µM throughout. Further, the TGI in the assay with COLO 205 colon, in the assay with UACC-257 melanoma and with MCF7 breast was greater than 100 µM in each case.
For the compound `COc1ccc(N2C(=O)C3c4[nH]c5cc(C)ccc5c4C4CCC(C(C)(C)C)CC4C3C2=O)cc1` (stereo unspecified), the TGI in the assay on SF-295 CNS, in the assay on HCT-116 colon, with SN12C renal, in the assay with NCI-H226 lung, in the assay with T-47D breast and in the assay with COLO 205 colon was greater than 10 µM in each case. Moreover, the TGI in the assay on SK-MEL-2 melanoma and in the assay with MCF7 breast was greater than 10 µM in each case.
Take `COc1cc2c(cc1OCCCN1C(=O)c3cccc4cccc(c34)C1=O)N=C[C@@H]1CCCN1C2=O`: the TGI with SF-295 CNS was greater than 100 µM; with HCT-116 colon it was greater than 100 µM; with SN12C renal, greater than 100 µM; with NCI-H226 lung, greater than 100 µM; with 786-0 renal it was 54.3 µM; with T-47D breast, greater than 100 µM. Moreover, the TGI is 40.6 µM in the assay on COLO 205 colon, greater than 100 µM in the assay on SK-MEL-2 melanoma, greater than 100 µM in the assay with UACC-257 melanoma and greater than 56.7 µM in the assay on MCF7 breast.
Turning to `OC(C#CCN1CCCC1)(c1ccccc1)c1ccccc1Cl` (stereo unspecified), the TGI with SF-295 CNS was 45.8 µM; with HCT-116 colon, 85.2 µM; with SN12C renal, greater than 100 µM; in the assay on NCI-H226 lung it was greater than 100 µM; with T-47D breast, greater than 100 µM; in the assay on COLO 205 colon, 25 µM. Further, the TGI was found to be 61.5 µM in the assay on SK-MEL-2 melanoma, 40.3 µM in the assay with UACC-257 melanoma and 32.9 µM in the assay with MCF7 breast.
For `Cc1ccc2c(c1)c1ccc3c(c1n2C)C(=O)C=CC3=O`, the TGI in the assay on SF-295 CNS is greater than 10 µM; in the assay with HCT-116 colon it was 2.92 µM; in the assay on SN12C renal, greater than 7.51 µM; in the assay with NCI-H226 lung it was greater than 10 µM; in the assay on 786-0 renal, 3.44 µM; in the assay with T-47D breast it was 5.08 µM. Moreover, the TGI was 3.16 µM in the assay with COLO 205 colon, greater than 10 µM in the assay with SK-MEL-2 melanoma, 7.9 µM in the assay on UACC-257 melanoma and 4.99 µM in the assay with MCF7 breast.
Regarding `Cc1ccnc(NC(=S)Nc2ccc([N+](=O)[O-])cc2)c1`, the TGI with SF-295 CNS, in the assay on HCT-116 colon, in the assay with NCI-H226 lung, in the assay on 786-0 renal, in the assay on T-47D breast and in the assay on SK-MEL-2 melanoma was greater than 100 µM each time. For the same compound, the TGI in the assay on UACC-257 melanoma and in the assay on MCF7 breast was greater than 100 µM each time.
For `CCCCCCCCCCCCCCCC(=O)N1CCCC1C(=O)NCC(=O)NC(Cc1ccccc1)C(=O)N1CCCC1C(=O)NC(CO)C(=O)NC(Cc1ccc(O)cc1)C(=O)NC(CCCCN)C(=O)NC(CC(C)C)C(=O)NC(CCCN=C(N)N)C(=O)N1CCCC1C(=O)NCC(N)=O` (stereo unspecified) (Palmitoyl-PGFPSYKLRPG-NH2; configuration not given here), the GI50 in the assay on SF-295 CNS was 26.5 µM; with HCT-116 colon, 14.8 µM; in the assay on NCI-H226 lung it was 23.5 µM; in the assay on T-47D breast, 17.9 µM; in the assay on COLO 205 colon, 10.3 µM; in the assay on SK-MEL-2 melanoma, 46.2 µM. Also, the GI50 with UACC-257 melanoma is 14.6 µM; in the assay with MCF7 breast, 15 µM. Further, the TGI in the assay with SF-295 CNS is 75.9 µM; in the assay on HCT-116 colon, 31.9 µM; with NCI-H226 lung it was 44.4 µM; in the assay on T-47D breast it was 48.5 µM; in the assay on COLO 205 colon, 33.3 µM; with SK-MEL-2 melanoma it was greater than 100 µM. In addition, the figures for the TGI in the assay on UACC-257 melanoma and with MCF7 breast were 31 µM and 35.3 µM, respectively.
Consider `CN1CCN(Cc2cc3c(nn2)-c2ccccc2C3=O)CC1`, for which the TGI was greater than 100 µM in the assay on SF-295 CNS; greater than 100 µM in the assay on HCT-116 colon; greater than 100 µM in the assay with NCI-H226 lung; greater than 100 µM in the assay on 786-0 renal; greater than 100 µM with T-47D breast; 34.3 µM in the assay with COLO 205 colon. The TGI in the assay on SK-MEL-2 melanoma was greater than 100 µM; with UACC-257 melanoma, 37.1 µM; with MCF7 breast, greater than 100 µM.
For the compound `C/C1=C\[C@H](C)C[C@H](C)OC(=O)[C@H](C)NC(=O)[C@@H](Cc2ccc(O)c(Br)c2)N(C)C(=O)[C@H](C)NC(=O)[C@@H](C)C1`, the TGI in the assay on SF-295 CNS was 4.9 µM; in the assay on HCT-116 colon, greater than 12.2 µM; in the assay on SN12C renal it was greater than 25 µM; in the assay with NCI-H226 lung, 0.787 µM; in the assay on T-47D breast it was greater than 25 µM; in the assay on COLO 205 colon, greater than 25 µM. The TGI is 9.34 µM in the assay on SK-MEL-2 melanoma, 14.8 µM with UACC-257 melanoma and greater than 25 µM in the assay with MCF7 breast.
On to `O=C(CNc1ccc(Cl)cc1Cl)Nn1c(-c2ccccc2)nc2ccccc2c1=O`, for which the TGI came out at 30.1 µM in the assay with SF-295 CNS; 31.3 µM in the assay with HCT-116 colon; 30.5 µM with SN12C renal; 58.3 µM in the assay on NCI-H226 lung; 35.1 µM in the assay with 786-0 renal; 38.5 µM with T-47D breast. The TGI is 36.1 µM with COLO 205 colon, 48.6 µM in the assay with UACC-257 melanoma and 27.4 µM in the assay on MCF7 breast.
In the case of `O=C1CSC2(CC(/C=C/c3cccs3)=NN2c2cccc(S(=O)(=O)O)c2)N1c1nc2ccccc2s1` (stereo unspecified), the TGI in the assay on HCT-116 colon is greater than 100 µM; in the assay with SN12C renal it was greater than 100 µM; with NCI-H226 lung, greater than 100 µM; with 786-0 renal, greater than 100 µM; in the assay on T-47D breast it was 80.2 µM; in the assay on COLO 205 colon it was greater than 100 µM. Further, the TGI in the assay with SK-MEL-2 melanoma, in the assay on UACC-257 melanoma and in the assay with MCF7 breast was greater than 100 µM in each case.
For the compound `Cc1cc(C)nc(NC(=S)Nc2ccc([N+](=O)[O-])cc2)c1`, the TGI with HCT-116 colon, in the assay with NCI-H226 lung, in the assay with 786-0 renal, in the assay with T-47D breast, in the assay with COLO 205 colon and in the assay with SK-MEL-2 melanoma was greater than 100 µM throughout. For the same compound, the TGI in the assay on UACC-257 melanoma and with MCF7 breast was greater than 100 µM in each case.
Consider `C=C1C(=O)[C@@]23CC[C@@H]4[C@@]5(C)CCC[C@@]4(OC5=O)[C@@]2(C)CC[C@@H]1C3`, for which the TGI with SF-295 CNS amounted to 20.9 µM; with HCT-116 colon it was 2.92 µM; in the assay with SN12C renal, 23.5 µM; in the assay with NCI-H226 lung it was 9.15 µM; with 786-0 renal it was 2.55 µM; with T-47D breast, 57.9 µM. For the same compound, the results for the TGI with SK-MEL-2 melanoma, with UACC-257 melanoma and in the assay on MCF7 breast were 8.12 µM, 4.06 µM and 2.21 µM, respectively.
`N#Cc1sc2c(c1OC(=O)c1ccc(C(F)(F)F)cc1)c(=O)n(-c1ccccc1)c(=S)n2-c1ccccc1`: the TGI in the assay on SF-295 CNS is 71.4 µM; with HCT-116 colon, 74.6 µM; in the assay with SN12C renal, 88.1 µM; in the assay with NCI-H226 lung it was 99.8 µM; in the assay on 786-0 renal it was greater than 100 µM; in the assay on T-47D breast, greater than 100 µM. For the same compound, the TGI in the assay with COLO 205 colon was 46.4 µM; in the assay on UACC-257 melanoma, greater than 100 µM; in the assay with MCF7 breast it was greater than 100 µM.
Regarding `O=C1N(Cc2ccccc2)C2CSCC2N1Cc1ccccc1` (stereo unspecified), the TGI with SF-295 CNS is greater than 100 µM; in the assay on HCT-116 colon, greater than 100 µM; in the assay on SN12C renal, greater than 100 µM; in the assay on NCI-H226 lung, 64.6 µM; with T-47D breast it was 91.8 µM; in the assay on COLO 205 colon it was 32.8 µM. Besides, the TGI is 46.4 µM in the assay with SK-MEL-2 melanoma, 69.3 µM with UACC-257 melanoma and greater than 100 µM in the assay on MCF7 breast.
On to `COc1cc(C=O)ccc1O`, for which the TGI with SF-295 CNS, in the assay on HCT-116 colon, in the assay with SN12C renal, in the assay on NCI-H226 lung, in the assay with 786-0 renal and with T-47D breast was greater than 100 µM in each case. The TGI with COLO 205 colon, with UACC-257 melanoma and in the assay with MCF7 breast was greater than 100 µM in each case.
For the compound `COc1cccc2c1OC(c1cccc3ccccc13)C([N+](=O)[O-])=C2` (stereo unspecified), the TGI came out at 4.56 µM in the assay on SF-295 CNS; 2.45 µM with HCT-116 colon; 11.2 µM with SN12C renal; 4.32 µM in the assay on NCI-H226 lung; 3.95 µM with 786-0 renal; 5.69 µM in the assay on T-47D breast. Besides, the results for the TGI in the assay on COLO 205 colon, in the assay with UACC-257 melanoma and in the assay on MCF7 breast were 5.72 µM, 4.42 µM and 2.65 µM, respectively.
As to `COc1ccc2oc(=N)c(C(=O)Nc3ccccc3)cc2c1`, the TGI in the assay with SF-295 CNS was 43.9 µM; with HCT-116 colon, greater than 100 µM; in the assay with SN12C renal, greater than 100 µM; in the assay with NCI-H226 lung, greater than 100 µM; with T-47D breast, greater than 100 µM; in the assay on COLO 205 colon, greater than 100 µM. In addition, the TGI in the assay on SK-MEL-2 melanoma is 37.4 µM; with UACC-257 melanoma, greater than 100 µM; in the assay with MCF7 breast, 33.2 µM.
As to `Cn1c2ccccc2c2c(=S)c3ccccc3ccc21`, the TGI in the assay with SF-295 CNS, with HCT-116 colon, in the assay with SN12C renal, in the assay on NCI-H226 lung, in the assay on 786-0 renal and in the assay on T-47D breast was greater than 100 µM each time. In addition, the TGI in the assay with COLO 205 colon, with UACC-257 melanoma and in the assay with MCF7 breast was greater than 100 µM throughout.
With `CC1(C)CCc2c(ccc(C(=O)/C=C/c3ccc(O)cc3)c2O)O1`, the TGI amounted to 26.1 µM with SF-295 CNS; 20 µM in the assay on HCT-116 colon; 20.7 µM in the assay on SN12C renal; 22.3 µM in the assay on NCI-H226 lung; 21 µM in the assay with T-47D breast; 20.7 µM in the assay on COLO 205 colon. Also, the TGI in the assay on SK-MEL-2 melanoma was found to be 23.5 µM; in the assay with UACC-257 melanoma, 23.4 µM; in the assay on MCF7 breast it was 29.4 µM.
